What was measured:
Assay type in all cases: cell-based
[1] = test system: Seven species of bacteria and one species of fungus; experiment: Disk diffusion assay, whole panel; details: all bacteria and fungus of the screening
From the text: (§1) Microorganisms: Laboratory strains of bacteria and fungus were obtained from Dr. Neil Towers' and Dr. Jovel's lab, The University of British Columbia. Seven species of bacteria and one species of fungus will be used in the screening process. The bacteria strains consisted of Staphylococcus aureus, methicillin resistant Staphylococcus aureus, Bacillus subtilis and Enterococcus faecalis, Escherichia coli, Pseudomonas aeruginosa, and Salmonella typhimurium. The fungal species was Candida albicans.
(§2) Methods: Disk diffusion assay on agar plates inoculated with the organisms being studies. The plates were divided into quadrants or sixths using a black marking pen. In quadrant 1 and 2, negative and positive controls were run (no treatment and gentamicin). Test compounds were run on the remaining available portions.

[2] = test system: Enterococcus faecalis; experiment: Disk diffusion assay on agar plates; set-up: key: “+” active; “−” not active
From the text: as §1, §2

[3] = test system: Candida albicans; experiment: Disk diffusion assay on agar plates; set-up: key: “+” active; “−” not active
From the text: as §1, §2

[4] = test system: Pseudomonas aeruginosa; experiment: Disk diffusion assay on agar plates; set-up: key: “+” active; “−” not active
From the text: as §1, §2

Molecule | anti-microbial activity across the panel (in words) [1] | Anti-microbial activity E.f. [2] | Anti-microbial activity C.a [3] | Anti-microbial activity P.a [4]
CC(C)c1cccc(=O)c(O)c1 [Hinokitiol standard, 2,4,6-Cycloheptatrien-1-one,2-hydroxy-4-(1-methylethyl)] | demonstrated activities against all the bacteria and fungus |  |  | 
Gentamicin | active against all the tested bacteria but not against C. albicans | + | − | 
CC1(C)C=CC=C(C(=O)O)C=C1 [Thujic acid standard, Thujic acid] | showed activities against some bacteria and fungus |  |  | −
